{"source": "patent US12391723B2", "about": "“Steroids and methods of manufacture” (Trustees of Dartmouth College, priority 2017, dated 2025)", "key": {"AsPC-1 [1]": {"test_system": "AsPC-1", "assay": "In vitro growth inhibition (Hoechst 33258 DNA fluorescence, 6 days)", "format": "cell-based", "conditions": "Homo sapiens, ASPC1, 144 h, concentration that inhibited growth by 50%, 2-fold dilutions from 40 μM", "method": "(§1) Fifteen (15) exemplary compounds were investigated for growth inhibition in two cancer cell lines (one for breast and one for pancreatic cancer: MDA-MB-231 and AsPC-1, respectively).\n(§2) Procedure: Inhibition of cell growth was accessed by plating 1000 cells per well of a 96-well plate. The following day, compounds were added as 2-fold dilutions from 40 μM (8 wells/concentration). After 6 days, cells were washed, lysed and stained with Hoechst 33258. Fluorescence was read on a microplate spectrofluorometer. Results are expressed as the concentration that inhibited growth by 50% (GI50). See Rao, J., Otto, W. R. Fluorometric DNA assay for cell growth estimation. Anal Biochem. 1992; 207:186-192."}, "MDA-MB-231 [2]": {"test_system": "MDA-MB-231", "assay": "In vitro growth inhibition (Hoechst 33258 DNA fluorescence, 6 days)", "format": "cell-based", "conditions": "Homo sapiens, MDA-MB-231, 144 h, concentration that inhibited growth by 50%, 2-fold dilutions from 40 μM", "method": "as §1, §2"}, "[3]": {"test_system": "three human cancer cell lines", "assay": "Growth inhibition by compound 39, total DNA content after 7 days growth", "format": "cell-based", "conditions": "168 h, range across three human cancer cell lines, read-out: 50% inhibitory concentrations", "method": "(§3) The following day, ent-steroidal compound 39 was added in 2-fold dilutions (8 wells/concentration). After 7 days growth, cells were lysed and analyzed for total DNA content as described in Montano et al. (See, Montano, R., et al., Mol. Cancer Therap., 11:427-438 [2012])."}, "AsPC-1 [4]": {"test_system": "AsPC-1", "assay": "Growth inhibition by Compound 39 (DNA fluorescence, FIG. 3D)", "format": "cell-based", "conditions": "Homo sapiens, ASPC1, read-out: calculated GI50 against AsPC-1", "method": "as §3\n(§4) Compound 39 was also investigated for growth inhibition in three cancer cell lines: MDA-MB-231, AsPC-1, and U2OS (human osteosarcoma)."}, "MDA-MB-231 [5]": {"test_system": "MDA-MB-231", "assay": "Growth inhibition by Compound 39 (DNA fluorescence, FIG. 3D)", "format": "cell-based", "conditions": "Homo sapiens, read-out: calculated GI50 against MDA-MB-231", "method": "as §3, §4"}, "[6]": {"test_system": "U2OS (human osteosarcoma)", "assay": "Growth inhibition by Compound 39 (DNA fluorescence, FIG. 3D)", "format": "cell-based", "conditions": "read-out: calculated GI50 against U2OS", "method": "as §3, §4"}, "ER-α": {"molecular_target": "T1, ER-α (Homo sapiens, UniProt P03372)", "T1 sequence (P03372 1-595)": "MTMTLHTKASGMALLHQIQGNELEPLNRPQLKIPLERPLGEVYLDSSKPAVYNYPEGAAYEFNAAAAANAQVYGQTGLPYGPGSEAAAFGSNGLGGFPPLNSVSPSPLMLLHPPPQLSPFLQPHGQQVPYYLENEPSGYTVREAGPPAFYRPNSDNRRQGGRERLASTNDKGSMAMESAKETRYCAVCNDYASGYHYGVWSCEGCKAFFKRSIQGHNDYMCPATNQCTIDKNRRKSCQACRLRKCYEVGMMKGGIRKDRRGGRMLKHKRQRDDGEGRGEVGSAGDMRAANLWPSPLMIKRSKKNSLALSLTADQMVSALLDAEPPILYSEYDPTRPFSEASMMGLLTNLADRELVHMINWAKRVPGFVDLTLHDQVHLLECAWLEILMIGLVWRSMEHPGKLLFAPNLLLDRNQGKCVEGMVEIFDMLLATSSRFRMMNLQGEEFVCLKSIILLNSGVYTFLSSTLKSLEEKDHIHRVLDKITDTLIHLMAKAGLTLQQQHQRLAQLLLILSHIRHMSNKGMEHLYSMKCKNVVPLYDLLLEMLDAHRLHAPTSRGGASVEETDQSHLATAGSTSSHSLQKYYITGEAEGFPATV", "assay": "ER-α agonist activity", "format": "cell-based"}, "ER-β": {"molecular_target": "ER-β (Homo sapiens, UniProt Q92731)", "sequence (Q92731 whole entry, species assumed)": "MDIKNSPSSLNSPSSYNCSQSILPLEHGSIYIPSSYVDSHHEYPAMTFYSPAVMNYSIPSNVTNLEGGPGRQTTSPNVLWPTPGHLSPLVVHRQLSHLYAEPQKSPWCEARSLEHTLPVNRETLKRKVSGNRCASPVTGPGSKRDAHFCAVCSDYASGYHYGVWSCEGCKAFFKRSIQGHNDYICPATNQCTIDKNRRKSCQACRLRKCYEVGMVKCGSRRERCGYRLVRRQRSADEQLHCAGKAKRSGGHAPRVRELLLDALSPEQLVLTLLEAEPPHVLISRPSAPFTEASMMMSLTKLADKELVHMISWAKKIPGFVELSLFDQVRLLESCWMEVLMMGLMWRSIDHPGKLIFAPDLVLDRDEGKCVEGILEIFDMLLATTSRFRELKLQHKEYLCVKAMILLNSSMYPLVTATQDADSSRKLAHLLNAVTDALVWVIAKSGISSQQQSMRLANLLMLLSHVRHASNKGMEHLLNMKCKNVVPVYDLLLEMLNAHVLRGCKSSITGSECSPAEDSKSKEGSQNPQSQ", "assay": "ER-β agonist activity", "format": "cell-based"}, "[7]": {"test_system": "MDA-MB-231, AsPC-1, and A549", "assay": "Growth of several cancer cell lines incubated with Compound 205b", "format": "cell-based, human", "conditions": "range across MDA-MB-231, AsPC-1, and A549", "method": "as §2\n(§5) Compound 205b has been identified as a uniquely potent and selective agonist of ER-β, having an EC50=20 nM for ER-β and an EC50 over 3000 nM for ER-α."}, "[8]": {"test_system": "cancer cell lines (MDA-MB-231, AsPC-1, and A549)", "assay": "Cell cycle analysis and microscopic analysis of cancer cells treated with Compound 205b", "format": "cell-based, human", "conditions": "at 0.8-5 μM", "method": "as §5"}, "CLK-4": {"molecular_target": "CLK-4 (Homo sapiens, UniProt Q9HAZ1)", "sequence (Q9HAZ1 whole entry, species assumed)": "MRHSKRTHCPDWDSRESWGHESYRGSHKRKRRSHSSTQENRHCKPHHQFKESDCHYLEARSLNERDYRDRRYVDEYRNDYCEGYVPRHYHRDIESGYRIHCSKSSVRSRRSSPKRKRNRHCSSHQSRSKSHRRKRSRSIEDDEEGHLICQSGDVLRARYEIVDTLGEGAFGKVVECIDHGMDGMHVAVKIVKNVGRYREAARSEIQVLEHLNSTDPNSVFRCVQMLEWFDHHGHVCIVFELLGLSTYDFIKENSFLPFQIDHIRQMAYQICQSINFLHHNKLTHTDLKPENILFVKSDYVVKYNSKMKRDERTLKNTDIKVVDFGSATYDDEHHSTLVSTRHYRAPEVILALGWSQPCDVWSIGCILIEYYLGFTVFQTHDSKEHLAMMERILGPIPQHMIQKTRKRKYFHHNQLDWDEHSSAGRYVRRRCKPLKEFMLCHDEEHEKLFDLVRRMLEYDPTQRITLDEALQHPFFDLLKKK", "assay": "Affinity to CLK-4", "format": "binding", "conditions": "member of the family of CDC-2-like kinases"}}, "note": "“And” between values parts separate entries of the source, which are not always exact repeats. Identical values can stand only once.", "data": [{"compound": "COc1ccc2ccc3c(c2c1)CC[C@]1(C)C[C@@H](O)C[C@@H]31", "note": "[Compound 206b]", "values": [{"measurement": "GI50", "setting": "AsPC-1 [1]", "value": 40, "unit": "µM"}, {"measurement": "GI50", "setting": "MDA-MB-231 [2]", "value": 30, "unit": "µM"}]}, {"compound": "C[C@@]12CC=C3C(=CC(=O)c4ccccc43)[C@H]1C[C@H](O)C2", "note": "[Compound 39]", "values": [{"measurement": "IC50", "setting": "[3]", "value": "1.2 µM to 4 µM and 0.32 µg/mL to 1.07 µg/mL"}, {"measurement": "GI50", "setting": "AsPC-1 [4]", "value": "~4", "unit": "µM"}, {"measurement": "GI50", "setting": "MDA-MB-231 [5]", "value": "0.32 µg/mL and 1.2 µM"}, {"measurement": "GI50", "setting": "[6]", "value": "~4", "unit": "µM"}]}, {"compound": "COc1ccc2c(C#Cc3ccccc3)cc3c(c2c1)CC[C@]1(C)C[C@H](O)C[C@@H]31", "note": "[Compound 201c]", "values": [{"measurement": "GI50", "setting": "AsPC-1 [1]", "value": 30, "unit": "µM"}, {"measurement": "GI50", "setting": "MDA-MB-231 [2]", "value": 20, "unit": "µM"}]}, {"compound": "C[C@]12CCc3c(ccc4ccc(O)cc34)[C@@H]1C[C@H](O)C2", "note": "[Compound 207b]", "values": [{"measurement": "GI50", "setting": "AsPC-1 [1]", "value": 40, "unit": "µM"}, {"measurement": "GI50", "setting": "MDA-MB-231 [2]", "value": 20, "unit": "µM"}]}, {"compound": "C[C@]12CCc3c(cc(C#Cc4ccccc4)c4ccc(O)cc34)[C@@H]1C[C@@H](O)C2", "note": "[Compound 205c]", "values": [{"measurement": "GI50", "setting": "AsPC-1 [1]", "value": 9, "unit": "µM"}, {"measurement": "GI50", "setting": "MDA-MB-231 [2]", "value": 8, "unit": "µM"}]}, {"compound": "COc1ccc2c(Br)cc3c(c2c1)CC[C@]1(C)C[C@H](O)C[C@@H]31", "note": "[Compound 201a]", "values": [{"measurement": "GI50", "setting": "AsPC-1 [1]", "value": 15, "unit": "µM"}, {"measurement": "GI50", "setting": "MDA-MB-231 [2]", "value": 15, "unit": "µM"}]}, {"compound": "COc1ccc2c(F)cc3c(c2c1)CC[C@]1(C)C[C@H](O)C[C@@H]31", "note": "[Compound 208a]", "values": [{"measurement": "GI50", "setting": "AsPC-1 [1]", "value": 30, "unit": "µM"}, {"measurement": "GI50", "setting": "MDA-MB-231 [2]", "value": 25, "unit": "µM"}]}, {"compound": "C[C@]12CCc3c(cc(F)c4ccc(O)cc34)[C@@H]1C[C@@H](O)C2", "note": "[Compound 208b]", "values": [{"measurement": "GI50", "setting": "AsPC-1 [1]", "value": 8, "unit": "µM"}, {"measurement": "GI50", "setting": "MDA-MB-231 [2]", "value": 4, "unit": "µM"}]}, {"compound": "C[C@]12CCc3c(cc(Br)c4ccc(O)cc34)[C@@H]1C[C@@H](O)C2", "note": "[Compound 205a]", "values": [{"measurement": "GI50", "setting": "AsPC-1 [1]", "value": 10, "unit": "µM"}, {"measurement": "GI50", "setting": "MDA-MB-231 [2]", "value": 17, "unit": "µM"}]}, {"compound": "C[C@]12CCc3c(cc(Br)c4ccc(O)cc34)[C@@H]1C[C@H](O)C2", "note": "[Compound 207a]", "values": [{"measurement": "GI50", "setting": "AsPC-1 [1]", "value": 30, "unit": "µM"}, {"measurement": "GI50", "setting": "MDA-MB-231 [2]", "value": 30, "unit": "µM"}]}, {"compound": "COc1ccc2c(C#Cc3ccccc3)cc3c(c2c1)CC[C@]1(C)C[C@@H](O)C[C@@H]31", "note": "[Compound 206c]", "values": [{"measurement": "GI50", "setting": "AsPC-1 [1]", "value": 15, "unit": "µM"}, {"measurement": "GI50", "setting": "MDA-MB-231 [2]", "value": 15, "unit": "µM"}]}, {"compound": "COc1ccc2ccc3c(c2c1)CC[C@]1(C)C[C@H](O)C[C@@H]31", "note": "[Compound 201b]", "values": [{"measurement": "GI50", "setting": "AsPC-1 [1]", "value": 30, "unit": "µM"}, {"measurement": "GI50", "setting": "MDA-MB-231 [2]", "value": 25, "unit": "µM"}]}, {"compound": "COc1ccc2c(Br)cc3c(c2c1)CC[C@]1(C)C[C@@H](O)C[C@@H]31", "note": "[Compound 206a]", "values": [{"measurement": "GI50", "setting": "AsPC-1 [1]", "value": 20, "unit": "µM"}, {"measurement": "GI50", "setting": "MDA-MB-231 [2]", "value": 20, "unit": "µM"}]}, {"compound": "C[C@]12CCc3c(cc(C#Cc4ccccc4)c4ccc(O)cc34)[C@@H]1C[C@H](O)C2", "note": "[Compound 207c]", "values": [{"measurement": "GI50", "setting": "AsPC-1 [1]", "value": 15, "unit": "µM"}, {"measurement": "GI50", "setting": "MDA-MB-231 [2]", "value": 5, "unit": "µM"}]}, {"compound": "COc1ccc2c(F)cc3c(c2c1)CC[C@]1(C)C[C@@H](O)C[C@@H]31", "note": "[Compound 208c]", "values": [{"measurement": "GI50", "setting": "AsPC-1 [1]", "value": 25, "unit": "µM"}, {"measurement": "GI50", "setting": "MDA-MB-231 [2]", "value": 5, "unit": "µM"}]}, {"compound": "C[C@]12CCc3c(ccc4ccc(O)cc34)[C@@H]1C[C@@H](O)C2", "note": "[Compound 205b]", "values": [{"measurement": "EC50", "setting": "ER-α", "value": "> 3", "unit": "µM"}, {"measurement": "GI50", "setting": "AsPC-1 [1]", "value": 2, "unit": "µM"}, {"measurement": "GI50", "setting": "MDA-MB-231 [2]", "value": 0.8, "unit": "µM"}, {"measurement": "EC50", "setting": "ER-β", "value": 0.02, "unit": "µM"}, {"measurement": "concentration at which growth was inhibited", "setting": "[7]", "value": "0.8 to 5", "unit": "µM"}, {"measurement": "mitotic arrest by microscopic analysis", "setting": "[8]", "value": "cells arrested in mitosis at prometaphase"}, {"measurement": "cell cycle arrest", "setting": "[8]; parallel experiments", "value": "arrested cells in G2/M phase of the cell cycle"}, {"measurement": "Kd", "setting": "CLK-4", "value": "~0.35", "unit": "µM"}]}]}
